Reference: ChEMBL document CHEMBL1201862, “PubChem BioAssay data set” (2004)
The source made the active and inactive calls. Rule as the data show it, for most assays here: actives have a measured EC50 and inactives only a lower limit.

What was measured:
[1] = system: Streptococcus sp. 'group A'; experiment: Streptococcus pyogenes SK(-)GAS viability under kanamycin – luminescence, BacTiterGlo, confirmation, counter-screen for streptokinase expression inhibitor project, dose response (AID 1900); type: functional, organism-based
Streptokinase A = biological target: T1, Streptokinase A (Streptococcus pyogenes serotype M1, UniProt P10520); experiment: viability-normalized secreted streptokinase activity reduction – plasminogen activation absorbance, OD405, dose response (AID 1914); type: functional, Streptococcus pyogenes M1 GAS;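 also: secreted streptokinase activity via plasminogen activation per viability signal from cell pellet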
T1 sequence (P10520 whole entry): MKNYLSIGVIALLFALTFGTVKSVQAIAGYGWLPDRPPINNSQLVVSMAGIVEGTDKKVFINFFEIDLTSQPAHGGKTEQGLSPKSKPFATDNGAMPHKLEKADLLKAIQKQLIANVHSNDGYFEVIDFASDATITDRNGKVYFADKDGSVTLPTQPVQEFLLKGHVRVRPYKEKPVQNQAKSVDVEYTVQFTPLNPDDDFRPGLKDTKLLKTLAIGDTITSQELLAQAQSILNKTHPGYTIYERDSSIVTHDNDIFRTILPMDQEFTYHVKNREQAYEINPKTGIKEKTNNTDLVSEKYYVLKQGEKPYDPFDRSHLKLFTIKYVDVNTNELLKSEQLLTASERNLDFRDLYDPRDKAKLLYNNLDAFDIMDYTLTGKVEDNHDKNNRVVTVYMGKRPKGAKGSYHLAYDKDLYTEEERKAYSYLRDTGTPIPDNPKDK

Streptococcus = experiment: GAS UMAA2166 growth inhibition – luminescence, BacTiterGlo, counter-screen for streptokinase expression inhibitor project, dose response (AID 1915); type: functional, organism-based;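 also: potency for reduction of bacterial viability or growth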
[2] = biological target: T2, Corticotropin-releasing factor receptor 2/Corticotropin-releasing factor-binding protein (Homo sapiens, UniProt P24387+Q13324); experiment: activators of CRF receptor 2 with binding protein – uHTS hits, confirmation (AID 602473); type: functional; conditions: read-out: EC50_Mean
T2 sequence (Q13324 whole entry): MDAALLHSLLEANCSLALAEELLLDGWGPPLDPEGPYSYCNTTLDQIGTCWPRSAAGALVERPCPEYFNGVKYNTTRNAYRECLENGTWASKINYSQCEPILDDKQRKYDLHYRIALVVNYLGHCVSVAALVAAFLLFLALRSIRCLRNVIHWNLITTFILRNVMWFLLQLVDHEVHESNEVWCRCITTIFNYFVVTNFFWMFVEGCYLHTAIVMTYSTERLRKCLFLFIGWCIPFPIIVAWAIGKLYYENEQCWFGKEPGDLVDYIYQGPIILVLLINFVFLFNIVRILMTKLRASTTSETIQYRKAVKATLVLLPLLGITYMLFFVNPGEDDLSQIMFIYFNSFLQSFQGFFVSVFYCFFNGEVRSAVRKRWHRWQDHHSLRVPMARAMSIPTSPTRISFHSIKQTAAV
T2 sequence (P24387 whole entry): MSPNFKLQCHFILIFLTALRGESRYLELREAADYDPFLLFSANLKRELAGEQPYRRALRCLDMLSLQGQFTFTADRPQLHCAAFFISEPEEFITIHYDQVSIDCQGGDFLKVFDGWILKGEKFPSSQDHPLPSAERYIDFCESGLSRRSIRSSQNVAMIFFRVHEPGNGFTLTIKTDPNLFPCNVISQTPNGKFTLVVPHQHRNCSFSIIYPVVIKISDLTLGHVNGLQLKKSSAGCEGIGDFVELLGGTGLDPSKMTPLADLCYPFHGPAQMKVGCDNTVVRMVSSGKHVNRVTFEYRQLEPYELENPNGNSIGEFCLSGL

[3] = Trypanosoma cruzi growth suppression in host cells – NIH3T3 host cells, beta-gal luminescence, confirmation (AID 2044); type: functional, cell-based;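 also: intracellular parasites grown in NIH/3T3 mouse fibroblasts as host cells; luminescent beta-galactosidase reporter signal from transgenic T. cruzi replicating inside host cells; inhibitors lower the luminescence signal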
[4] = NIH3T3 cell viability loss – ATP luminescence, mouse fibroblasts, counter-screen, dose response (AID 2010); type: functional, cell-based;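 also: cells exposed to compound for about 90 hours before reading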
Cytochrome P450 3A4 = Cytochrome P450 3A4 (Homo sapiens, UniProt P08684);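 also: CYP3A4 tested as one member of a cytochrome P450 panel screen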
[5] = luciferase reporter signal suppression in cells – H4 neuroglioma cells, luminescence, dose response (AID 1990); type: functional, cell-based
[6] = Luminescence Cell-Based Dose Response HTS to Identify Inhibitors of 5'UTR Stem-Loop Driven Prion Protein mRNA Translation in H4 Neuroglioblastoma Cells. [Related pubchem assays: 1827 (Project Summary), 1813 (Primary HTS)]; type: functional
[7] = alpha-synuclein stem-loop luciferase translation blockers – H4 neuroglioma cells, luminescence, confirmation (AID 1988); type: functional, cell-based
[8] = Luminescence Cell-Based Dose Response HTS to Identify Activators of Luciferase Translation or Activity in H4 […] Cells. [Related pubchem assays: 1829 (Project Summary), 1814 (Primary HTS)]; type: functional

Sequence of Cytochrome P450 3A4 (P08684 whole entry): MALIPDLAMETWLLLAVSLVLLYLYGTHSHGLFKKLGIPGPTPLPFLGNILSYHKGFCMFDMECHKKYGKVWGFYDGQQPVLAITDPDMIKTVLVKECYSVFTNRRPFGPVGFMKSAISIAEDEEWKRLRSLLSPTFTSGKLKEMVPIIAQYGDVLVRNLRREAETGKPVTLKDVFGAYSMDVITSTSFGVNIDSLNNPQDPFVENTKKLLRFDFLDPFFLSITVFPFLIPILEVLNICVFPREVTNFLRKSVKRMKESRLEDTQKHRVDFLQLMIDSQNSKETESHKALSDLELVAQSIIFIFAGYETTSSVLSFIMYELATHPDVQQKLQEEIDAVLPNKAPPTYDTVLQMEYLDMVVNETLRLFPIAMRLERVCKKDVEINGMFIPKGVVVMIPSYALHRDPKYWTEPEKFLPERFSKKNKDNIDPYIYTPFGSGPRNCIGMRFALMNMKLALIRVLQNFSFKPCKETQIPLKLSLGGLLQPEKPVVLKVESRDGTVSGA

## Cc1cc(C(=O)NCC(=O)OC(C(=O)Nc2cc(C(F)(F)F)ccc2Cl)c2ccccc2)ccc1[N+](=O)[O-] (stereo not given)
[1]
  EC50: > 150 µM (not active)
Streptokinase A
  EC50: > 150 µM (not active)
Streptococcus
  EC50: > 150 µM (not active)

## COc1ccc(CCn2c(C(C)C)nc3c(c(=O)c4ccccc4n3C)c2=O)cc1
[2]
  EC50: 7.87 µM (active)

## Cc1nn(Cc2ccccc2)c(C)c1NC(=O)c1ccc([N+](=O)[O-])cc1[N+](=O)[O-]
[3]
  EC50: 0.307 µM (active)
[4]
  EC50: > 60 µM (not active)

## O=C(Oc1ccccc1)N1CCC2(CC1)CN(c1ccncc1)C2
Cytochrome P450 3A4
  AC50: 15.8 µM (inconclusive)

## C[C@@H]1O[C@@H]2C3=C(C(=O)[C@H]4O[C@@H]4[C@H]3O)C1[C@@H]1[C@@H](C)OC=C3[C@H](O)[C@H]4O[C@@H]4/C(=N\OCc4ccccc4)[C@@]321
Cytochrome P450 3A4
  AC50: 6.31 µM (inconclusive)

## Clc1ccc(-c2csc(Nc3cccnc3)n2)cc1
[3]
  EC50: 0.3 µM (active)
[4]
  EC50: > 60 µM (not active)

## CCCCN(Cc1cc2cc(OC)ccc2nc1O)S(=O)(=O)c1ccc(C)cc1
[5]
  EC50: 16 µM (active)
[6]
  EC50: 11.3 µM (active)
[7]
  EC50: 11.1 µM (active)

## Nc1nc2n(n1)C(c1cccc(Br)c1)CC(c1ccc(F)cc1)N2 (stereo not given)
[2]
  EC50: > 53 µM (inactive)

## CN(c1ccc(OCC(=O)Nc2nc(-c3ccccc3)cs2)cc1)S(=O)(=O)c1ccc(F)cc1
[3]
  EC50: 1.14 µM (active)
[4]
  EC50: > 60 µM (not active)

## CCOC(=O)c1cccc(NC(=O)/C=C/c2ccc3c(c2)OCO3)c1
[5]
  EC50: 2.11 µM (active)
[6]
  EC50: 0.361 µM (active)

## CCc1cccc(C)c1NC(=O)COC(=O)c1c2c(nc3ccccc13)/C(=C\c1cccs1)CCC2
[3]
  EC50: 2.22 µM (active)
[4]
  EC50: > 60 µM (not active)

## CC1(C)CC(=O)C=C(Nc2ccc(Br)cn2)C1
[5]
  EC50: > 120 µM (not active)
[6]
  EC50: > 120 µM (not active)
[7]
  EC50: > 120 µM (not active)

## COc1ccc(Cl)cc1N=C(S)N(Cc1cccnc1)Cc1ccco1
[3]
  EC50: 0.722 µM (active)
[4]
  EC50: > 60 µM (not active)

## CCOC(=O)c1ccc(Nc2nc(C)nc3c2nnn3Cc2ccccc2)cc1
[1]
  EC50: 13.4 µM (active)
Streptokinase A
  EC50: > 150 µM (not active)
Streptococcus
  EC50: > 150 µM (not active)

## Cc1nc(-c2ccccc2)sc1-c1ccnn1C
[8]
  EC50: 0.367 µM (active)

## CNC(=O)[C@@H]1O[C@@H](n2cnc3c(NCc4cccc(I)c4)ncnc32)[C@H](O)[C@@H]1O
Cytochrome P450 3A4
  AC50: 39.8 µM (inconclusive)

## O=C(COC(=O)Cc1cn2ccsc2n1)Nc1nc2ccccc2s1
[1]
  EC50: 2.64 µM (active)
Streptokinase A
  EC50: > 150 µM (not active)
Streptococcus
  EC50: 6.72 µM (active)

## COc1ccc(-c2cc(C(F)(F)F)n3ncc(C(=O)N4CCc5ccccc5C4)c3n2)cc1
[3]
  EC50: 1.84 µM (active)
[4]
  EC50: > 60 µM (not active)

## Cc1cc(C)c2nc(N(CCCN(C)C)C(=O)c3ccc4c(c3)OCCO4)sc2c1
[3]
  EC50: 0.5 µM (active)
[4]
  EC50: 54.2 µM (active)

## O=C(C1CCCCC1)N1CCC(c2nc(O)c3nnn(Cc4c(F)cccc4Cl)c3n2)CC1
[1]
  EC50: 4.19 µM (active)
Streptokinase A
  EC50: > 150 µM (not active)
Streptococcus
  EC50: 9.82 µM (active)

## CC(CCN(C)C)OC(=O)c1ccc(C(C)c2ccccc2)o1 (stereo not given)
[3]
  EC50: 0.845 µM (active)
[4]
  EC50: > 60 µM (not active)

## O=C(c1cc(-c2ccncc2)nc2ccc(Cl)cc12)N1CCN(Cc2ccc3c(c2)OCO3)CC1
[3]
  EC50: 0.152 µM (active)
[4]
  EC50: > 60 µM (not active)

## O=S(=O)(c1ccccc1)N1CCC2(CCN(c3ncccn3)CC2)CC1
Cytochrome P450 3A4
  AC50: 31.6 µM (inconclusive)

## CCc1ccccc1N=C(S)NCCSc1ccc(Cl)cc1
[1]
  EC50: 19.9 µM (active)
Streptococcus
  EC50: > 150 µM (not active)

## CCc1ccccc1NC(=S)NCCSc1ccc(Cl)cc1
Streptokinase A
  EC50: 30.5 µM (active)

## CCOc1ccc(CNC(=O)CCCn2nc(C)c3c(C)n(-c4ccc(C)cc4)nc3c2=O)cc1
[5]
  EC50: 11.4 µM (active)
[6]
  EC50: > 120 µM (not active)
[7]
  EC50: 32.2 µM (active)

## O=C(NCC1OCCc2ccccc21)c1ccc(NC(=O)c2ccc(Cl)cc2)cc1 (stereo not given)
[5]
  EC50: > 120 µM (not active)
[6]
  EC50: 14.2 µM (active)
[7]
  EC50: 12.5 µM (active)

## O=c1c(-c2cc(F)cc(F)c2)nc2cncnc2n1Cc1ccc(F)cc1
Cytochrome P450 3A4
  AC50: 10 µM (inconclusive)

## OCCN1CCN(Cc2cccc(Oc3ccc(Cl)cc3)c2)CC1
[3]
  EC50: 3.92 µM (active)
[4]
  EC50: > 60 µM (not active)

## COc1cccc(NC(=O)NCCCCc2ccccc2)c1
[1]
  EC50: > 150 µM (not active)
Streptokinase A
  EC50: 106 µM (active)
Streptococcus
  EC50: > 150 µM (not active)

## CCOC(=O)c1sc2nc(Cc3ccc(Cl)cc3)nc(S)c2c1C
[1]
  EC50: 4.03 µM (active)
Streptococcus
  EC50: > 150 µM (not active)

## O=C(CSc1nnnn1-c1cccc2ccccc12)Nc1ccc(N2CCOCC2)c(Cl)c1
[3]
  EC50: 0.457 µM (active)
[4]
  EC50: > 60 µM (inconclusive)

## Cc1ccc(Cn2nnc(C(=O)Nc3cccc(C)c3C)c2N)cc1
[2]
  EC50: 7.98 µM (active)

## CCOc1ccc(NC(=S)N2CCc3cc(OC)c(OC)cc3C2COc2ccc3c(C)cc(=O)oc3c2)cc1 (stereo not given)
[5]
  EC50: 30.4 µM (active)
[6]
  EC50: 39.9 µM (active)
[7]
  EC50: > 120 µM (not active)

## Cc1ccc(NNC(=O)C2CCC2)cc1C
[1]
  EC50: > 150 µM (not active)
Streptokinase A
  EC50: > 150 µM (not active)
Streptococcus
  EC50: > 150 µM (not active)

## Cc1ccc(C(=O)NCCSc2ccccc2)cc1S(=O)(=O)Nc1ccccc1
[5]
  EC50: 29.3 µM (active)
[6]
  EC50: 23.3 µM (active)
[7]
  EC50: > 120 µM (not active)

## C/C(CCN1CCCc2nc(C)c(C)cc21)=N\OC[C@@H](C)[C@H](OCc1ccccc1)C(C)C
Cytochrome P450 3A4
  AC50: 3.16 µM (inconclusive)

## CO[C@H]1COC(=O)C/C=C\[C@H](C)COC(=O)[C@@H](OCc2ccccc2)/C=C\[C@@H]1C
Cytochrome P450 3A4
  AC50: 3.98 µM (inconclusive)

## CCOC(=O)c1sc(NC(=O)c2ccc(S(=O)(=O)N(C)C)cc2)cc1C
[3]
  EC50: 2.21 µM (active)
[4]
  EC50: 8.88 µM (active)

## N=c1nc(N)nc2n1NC(c1ccc(F)cc1)=CS2
[5]
  EC50: > 120 µM (not active)
[6]
  EC50: > 120 µM (not active)
[7]
  EC50: 13.7 µM (active)

## O=C(Cn1c(C(=O)N2CCN(C3CCCCC3)CC2)cc2sccc21)c1ccccc1
[3]
  EC50: 2.53 µM (active)
[4]
  EC50: > 60 µM (not active)

## O[Si@](CCCN1CCCCC1)(c1ccc(F)cc1)C1CCCCC1
Cytochrome P450 3A4
  AC50: 3.98 µM (inconclusive)

## Cc1c(C)n(C(=O)CN2CCC(C)CC2)c2ccccc12
Cytochrome P450 3A4
  AC50: 17.8 µM (inconclusive)

## CCN(CC)c1ccc(NC(=O)c2ccc3c(c2)c(C)c(C)n3C)cc1
[3]
  EC50: 1.63 µM (active)
[4]
  EC50: > 60 µM (not active)

## Cc1ccc(NC(=N)Nc2nc(C)cc(C)n2)cc1
[2]
  EC50: 9.85 µM (active)

## Sc1nnc(-c2cc(-c3ccccc3)[nH]n2)n1/N=C/c1ccc(Cl)cc1
[1]
  EC50: 18 µM (active)
Streptokinase A
  EC50: > 150 µM (not active)
Streptococcus
  EC50: 21.4 µM (active)

## NC(=S)N/N=C\c1ccccc1OCc1ccccc1
[3]
  EC50: 0.623 µM (active)
[4]
  EC50: > 30 µM (not active)

## C=CCNC(=S)N/N=C/c1ccc(-c2ccc(Cl)cc2Cl)o1
[3]
  EC50: 1.6 µM (active)
[4]
  EC50: > 60 µM (not active)
